Reference: US20080280759A1, “6-(2-Fluoro-4-Alkoxyphenyl) Triazolopyrimidines, Their Preparation, Their Use For Controlling Harmful Fungi, and Compositions Comprising Them” (priority 2003, published 2008)

tested on: Botrytis cinerea; test: Activity against gray mold on bell pepper leaves caused by Botrytis cinerea, protective application; format: in vivo; settings: 250 ppm, sprayed the day before inoculation, assessed visually after 5 days, untreated plants 80% infected
Description: The active compounds were formulated separately as a stock solution with 0.25% by weight in acetone or DMSO. 1% by weight of the emulsifier Wettol EM 31 (wetting agent having emulsifying and dispersing action based on ethoxylated alkylphenols) was added to this solution. The stock solutions of the active compounds were diluted with water to the stated concentration. For examples 1 and 2, the active compounds were prepared as a stock solution with 25 mg of active compound which was made up to 10 ml using a mixture of acetone and/or DMSO and the emulsifier Uniperol® EL (wetting agent having emulsifying and dispersing action based on the ethoxylated alkylphenols) in a volume ratio of solvent/emulsifier of 99 to 1. The mixture was then made up with water to 100 ml. This stock solution was diluted with the solvent/emulsifier/water mixture described to the concentration of active compounds stated below. Bell pepper seedlings of the cultivar “Neusiedler Ideal Elite” were, after 2 to 3 leaves were well developed, sprayed to runoff point with an aqueous suspension having the concentration of active compounds stated below. The next day, the treated plants were inoculated with a spore suspension of Botrytis cinerea which contained 1.7×10^6 spores/ml in a 2% aqueous biomalt solution. The test plants were then placed in a dark climatized chamber at 22 to 24° C. and high atmospheric humidity. After 5 days, the extent of the fungal infection on the leaves could be determined visually in %.

Row | Compound | fungal infection on the leaves
1 | COc1cc(F)c(-c2c(C)nc3ncnn3c2N2CCC(C)CC2)c(F)c1 [Compound I-2, 5-methyl-6-(2,6-difluoro-4-methoxyphenyl)-7-(4-methyl-piperidinyl)-1,2,4-triazolo[1,5a]pyrimidine] | no infection
2 | 5-methoxy-6-(2,6-difluoro-4-methoxyphenyl)-7-(4-methyl-piperidinyl)-1,2,4-triazolo[1,5a]pyrimidine [Compound I-3] | no infection
3 | COc1cc(F)c(-c2c(C#N)nc3ncnn3c2N2CCC(C)CC2)c(F)c1 [Compound I-1, 5-cyano-6-(2,6-difluoro-4-methoxyphenyl)-7-(4-methyl-piperidinyl)-1,2,4-triazolo[1,5a]pyrimidine] | no infection
